# Test results reported in patent US6355799B1, “Substituted benzene compounds, process for their preparation, and herbicidal and defoliant compositions containing them” (ISK Americas Incorporated, priority 1997, dated 2002).
# Assays:
# Assay type in all cases: in vivo
# [1] = test system: redroot pigweed (Amaranthus retroflexus, AMARE); experiment: Pre-emerge test, greenhouse herbicide activity screening; conditions: phytotoxicity rating 0-100, 14 days after application
# In short: (§1)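 Sandy loam pots; pre-emerge: sown 1 d pre-spray, surface-watered after, then bottom-watered. Post-emerge: sown 8–21 d before, 2–3 leaf stage, + 0.25% v/v NIS, bottom-watered. Acetone, 187 l/ha track spray, 15–1000 g ai/ha. 0–100 injury score, day 14.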
# [2] = test system: large crabgrass (Digitaria sanguinalis, DIGSA); experiment: as above; conditions: phytotoxicity rating 0-100, 14 days after application
# In short: as §1
# [3] = test system: johnsongrass (Sorghum halepense, SORHA); experiment: as above; conditions: phytotoxicity rating 0-100, 14 days after application
# In short: as §1
# [4] = test system: velvetleaf (Abutilon theophrasti, ABUTH); experiment: as above; conditions: phytotoxicity rating 0-100, 14 days after application
# In short: as §1
# [5] = test system: lambsquarters (Chenopodium album, CHEAL); experiment: as above; conditions: phytotoxicity rating 0-100, 14 days after application
# In short: as §1
# [6] = test system: common ragweed (Ambrosia artemisizfolia L., AMBEL); experiment: as above; conditions: phytotoxicity rating 0-100, 14 days after application
# In short: as §1
# [7] = test system: sicklepod (Cassia obtusifolia, CASOB); experiment: as above; conditions: phytotoxicity rating 0-100, 14 days after application
# In short: as §1
# [8] = test system: barnyardgrass (Echinochloa crus-galli, ECHCG); experiment: as above; conditions: phytotoxicity rating 0-100, 14 days after application
# In short: as §1
# [9] = test system: green foxtail (Setaria viridis, SETVI); experiment: as above; conditions: phytotoxicity rating 0-100, 14 days after application
# In short: as §1
# [10] = test system: ivyleaf morningglory (Ipomoea hederacea, IPOHE); experiment: as above; conditions: phytotoxicity rating 0-100, 14 days after application
# In short: as §1
# [11] = test system: field corn (Zea mays L., var. Dekalb 535, CORN); experiment: Pre-emerge test, crop safety; conditions: crop damage rating 0-100, 14 days after application
# In short: (§2)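 Applied at 15–1000 g ai/ha from acetone in 187 l/ha spray volume. Post-emergence applications included 0.25% v/v non-ionic surfactant and reached plants sown 8–21 days before. Pre-emergence applications were incorporated by surface watering. Efficacy or crop damage was rated on a 0–100 scale after 14 days.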
# [12] = test system: upland rice (Oryza sp., var. Tebonnet, RICE); experiment: Pre-emerge test, crop safety; conditions: crop damage rating 0-100, 14 days after application
# In short: as §2
# [13] = test system: field corn (Zea mays L., var. Dekalb 535, CORN); experiment: Post-emerge test, crop safety; conditions: post-emerge, 14 days after application, rating scale 0-100
# In short: as §1
# [14] = test system: upland rice (Oryza sp., var. Tebonnet, RICE); experiment: Post-emerge test, crop safety; conditions: post-emerge, 14 days after application, rating scale 0-100
# In short: as §1
# [15] = test system: large crabgrass (Digitaria sanguinalis, DIGSA); experiment: Post-emerge test, greenhouse herbicide activity screening; conditions: post-emerge, 14 days after application, rating scale 0-100
# In short: (§3)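 Herbicidal damage is scored 0 (none) to 100 (complete plant death) two weeks after a simulated field spray. Rates span 15–1000 g ai/ha, delivered in acetone at 187 l/ha. For post-emergence treatments, plants have 2–3 leaves and the spray carries 0.25% v/v non-ionic surfactant.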
# [16] = test system: johnsongrass (Sorghum halepense, SORHA); experiment: as above; conditions: post-emerge, 14 days after application, rating scale 0-100
# In short: as §3
# [17] = test system: redroot pigweed (Amaranthus retroflexus, AMARE); experiment: as above; conditions: post-emerge, 14 days after application
# In short: as §3
# [18] = test system: velvetleaf (Abutilon theophrasti, ABUTH); experiment: as above; conditions: post-emerge, 14 days after application, rating scale 0-100
# In short: as §3
# [19] = test system: lambsquarters (Chenopodium album, CHEAL); experiment: as above; conditions: post-emerge, 14 days after application, rating scale 0-100
# In short: as §3
# [20] = test system: sicklepod (Cassia obtusifolia, CASOB); experiment: as above; conditions: post-emerge, 14 days after application, rating scale 0-100
# In short: as §3
# [21] = test system: barnyardgrass (Echinochloa crus-galli, ECHCG); experiment: as above; conditions: post-emerge, 14 days after application, rating scale 0-100
# In short: as §3
# [22] = test system: green foxtail (Setaria viridis, SETVI); experiment: as above; conditions: post-emerge, 14 days after application, rating scale 0-100
# In short: as §3
# [23] = test system: ivyleaf morningglory (Ipomoea hederacea, IPOHE); experiment: as above; conditions: post-emerge, 14 days after application, rating scale 0-100
# In short: as §3
compound,measurement,setting,value
Cn1c(C(F)(F)F)cc(=O)n(-c2ccc(Cl)cc2NC(=O)OCc2ccccc2F)c1=O [4-49],Pre-emerge Herbicidal Activity AMARE,[1]; 63 g ai/ha,100
same,Pre-emerge Herbicidal Activity AMARE,[1]; 250 g ai/ha,100
same,Pre-emerge Herbicidal Activity DIGSA,[2]; 63 g ai/ha,70
same,Pre-emerge Herbicidal Activity DIGSA,[2]; 250 g ai/ha,100
same,Pre-emerge Herbicidal Activity SORHA,[3]; 63 g ai/ha,50
same,Pre-emerge Herbicidal Activity SORHA,[3]; 250 g ai/ha,90
same,Pre-emerge Herbicidal Activity ABUTH,[4]; 63 g ai/ha,95
same,Pre-emerge Herbicidal Activity ABUTH,[4]; 250 g ai/ha,100
same,Pre-emerge Herbicidal Activity CHEAL,[5]; 63 g ai/ha,100
same,Pre-emerge Herbicidal Activity CHEAL,[5]; 250 g ai/ha,100
same,Pre-emerge Herbicidal Activity AMBEL,[6]; 63 g ai/ha,80
same,Pre-emerge Herbicidal Activity AMBEL,[6]; 250 g ai/ha,60
same,Pre-emerge Herbicidal Activity CASOB,[7]; 63 g ai/ha,30
same,Pre-emerge Herbicidal Activity CASOB,[7]; 250 g ai/ha,60
same,Pre-emerge Herbicidal Activity ECHCG,[8]; 63 g ai/ha,10
same,Pre-emerge Herbicidal Activity ECHCG,[8]; 250 g ai/ha,75
same,Pre-emerge Herbicidal Activity SETVI,[9]; 63 g ai/ha,70
same,Pre-emerge Herbicidal Activity SETVI,[9]; 250 g ai/ha,100
same,Pre-emerge Herbicidal Activity IPOHE,[10]; 63 g ai/ha,40
same,Pre-emerge Herbicidal Activity IPOHE,[10]; 250 g ai/ha,100
same,Pre-emerge Herbicidal Activity CORN,[11]; 63 g ai/ha,0
same,Pre-emerge Herbicidal Activity CORN,[11]; 250 g ai/ha,15
same,Pre-emerge Herbicidal Activity RICE,[12]; 63 g ai/ha,30
same,Pre-emerge Herbicidal Activity RICE,[12]; 250 g ai/ha,25
same,phytotoxicity rating CORN (crop damage),[13]; 63 g ai/ha,20
same,phytotoxicity rating CORN (crop damage),[13]; 250 g ai/ha,80
same,phytotoxicity rating RICE (crop damage),[14]; 63 g ai/ha,10
same,phytotoxicity rating RICE (crop damage),[14]; 250 g ai/ha,70
same,phytotoxicity rating DIGSA,[15]; 63 g ai/ha,10
same,phytotoxicity rating DIGSA,[15]; 250 g ai/ha,10
same,phytotoxicity rating SORHA,[16]; 63 g ai/ha,0
same,phytotoxicity rating SORHA,[16]; 250 g ai/ha,10
same,phytotoxicity rating AMARE,"[17]; 63 g ai/ha, rating scale 0-100 (0 no damage, 100 complete death)",100
same,phytotoxicity rating AMARE,"[17]; 250 g ai/ha, rating scale 0-100",100
same,phytotoxicity rating ABUTH,[18]; 63 g ai/ha,100
same,phytotoxicity rating ABUTH,[18]; 250 g ai/ha,100
same,phytotoxicity rating CHEAL,[19]; 63 g ai/ha,100
same,phytotoxicity rating CHEAL,[19]; 250 g ai/ha,100
same,phytotoxicity rating CASOB,[20]; 63 g ai/ha,80
same,phytotoxicity rating CASOB,[20]; 250 g ai/ha,100
same,phytotoxicity rating ECHCG,[21]; 63 g ai/ha,10
same,phytotoxicity rating ECHCG,[21]; 250 g ai/ha,10
same,phytotoxicity rating SETVI,[22]; 63 g ai/ha,30
same,phytotoxicity rating SETVI,[22]; 250 g ai/ha,30
same,phytotoxicity rating IPOHE,[23]; 63 g ai/ha,80
same,phytotoxicity rating IPOHE,[23]; 250 g ai/ha,100
